# Results published in patent US20130011493A1, “PLANT DISEASE CONTROLLING COMPOSITION AND METHOD FOR CONTROLLING PLANT DISEASE” (SUMITOMO CHEMICAL COMPANY, LIMITED, priority 2010, published 2013).
# Tested on: gray mold fungus (Botrytis cinerea)
# Test: cucumber leaf disk preventive test against gray mold fungus
# Type: in vivo
# Settings: 15° C., four days
# Procedure: To a SUS beaker are added 30 parts of the present compound (racemate), 5 parts of Soprophor FLK (polyoxyethylene tristyrylphenyl ether phosphate, produced by Rhodia Nicca Ltd.), 65 parts of ion-exchange water and 150 parts of glass beads (1.0 mm diameter). The mixture is subjected to grinding at a velocity of 1000 rpm with cooling to 10° C., and thereafter the glass beads are separated, so as to obtain a flowable formulation comprising the present compound (racemate).
# True leaf of cucumber is punched out with cork borer to 13 mm in diameter to prepare a leaf disk. In 24 well microwell plate that is dispensed with 1 ml 0.8% water agar, the leaf disk is placed such that the upper side of the leaf is in an upward direction. […]
# After confirming that the testing medical solution is dried, conidium of gray mold fungus (Botrytis cinerea) is suspended into potato dextrose broth (DIFCO) in a density of about 10^5 conidium/mL and is then subjected to a spray inoculation. After leaving to stand the leaf disk in a growth chamber set up at 15° C. for four days, an onset area on the leaf is measured and then calculated an onset area rate (hereinafter, referred to as an onset area rate of treated group). […]
# A preventive value is calculated from the above onset area rate of treated group and the onset area rate of non-treated group by the following equation: […]
substance,measurement,setting,value
copper hydrochloride,preventive value (%),copper hydrochloride alone 0.5 ppm,10%
same,preventive value (%),copper hydrochloride alone 5.0 ppm,15%
